# Values quoted from earlier work in patent publication US20140147496A1, “COMPOSITION AND METHOD FOR FERTILITY THERAPY USING NUTRITIONAL SUPPLEMENTS” (FAIRHAVEN HEALTH, LLC, priority 2009, published 2014).
# Assays:
# [1] = system: Patients with inflammatory abacterial prostatovesiculoepididymitis (PVE); details: following a 3-month washout period
# [2] = system: patients with idiopathic asthenospermia; details: between baseline, 12 week, or 24 weeks
# [3] = system: Infertile men with idiopathic asthenozoospermia; details: oral
# [4] = system: idiopathic asthenozoospermic infertile patients; details: after administration
# infertile patients [5] = details: 60 mg, mean 103 days, 17 infertile patients
# infertile patients [6] = details: 2 g/day, two month cross-over, excluding outliers
# [7] = system: patients with idiopathic asthenospermia; details: 3 g/d
compound,measurement,setting,value
C[N+](C)(C)CC(O)CC(=O)[O-] (stereo not shown) [carnitine],production of reactive oxygen species,[1],highest reduction
same,sperm motility and viability,[1],increased
same,motility or total motile sperm counts,[2],no significant differences
COC1=C(OC)C(=O)C(C/C=C(\C)CC/C=C(\C)CC/C=C(\C)CC/C=C(\C)CC/C=C(\C)CC/C=C(\C)CC/C=C(\C)CC/C=C(\C)CC/C=C(\C)CCC=C(C)C)=C(C)C1=O [Coenzyme Q10],motility after incubation,"sperm samples; samples with initial normal motility, 5 μM or 50 μM, 24 h",no significant change
same,motility,"sperm samples; sperm samples from 22 asthenospermic men, in vitro, 50 μM",significant increases in motility
same,Coenzyme Q10 levels in seminal plasma and in sperm cells,[3]; after 6 months of therapy,increased significantly
same,sperm cell motility,"[3]; after 6 months, computer-assisted analysis",significant increase
same,Coenzyme Q10 in seminal plasma and in sperm cells,[4],significant increase
same,sperm motility,[4],improvement in sperm motility
same,standard sperm parameters,infertile patients [5],no significant changes
same,fertilization rate,infertile patients [5]; p<0.05,significant improvement
C[N+](C)(C)C[C@H](O)CC(=O)[O-] [L-carnitine],"semen quality over placebo (concentration, total and forward motility)",infertile patients [6],statistically significant improvement
"CC(=O)O[C@H](CC(=O)[O-])C[N+](C)(C)C [LAC, L-acetyl-carnitine]",sperm cell motility,[7],increased
